Experimental data: patent US20160229835A1, “NOVEL PYRIDYLOXYACETYL TETRAHYDROISOQUINOLINE COMPOUNDS USEFUL AS NAMPT INHIBITORS” (ELI LILLY AND COMPANY, priority 2013, published 2016)
Where two headings read alike, the source gives them in different places.

Tests used:
A498 = test: Cell Proliferation Assay ±NA, A498; format: cell-based; details: Homo sapiens, A498, kidney, treatment time 48 hr
Method: (§1) The purpose of this assay is to measure the ability of a compound to inhibit proliferation of endometrium, kidney, adrenal gland, and autonomic ganglia cancer cell lines dependent on the NAMPT-mediated NAD^+ formation in the presence or absence of NA (10 μM) in vitro. One day before the planned initiation of compound treatment portion of the assay, one vial of assay ready frozen cells is thawed, and the cells are grown overnight in the media as shown in Table 3 under 5% CO2 at 37° C. Then, the cell layer is briefly rinsed with 0.25% (w/v) Trypsin-0.038% (w/v) EDTA solution followed with the addition of 3.0 ml of Trypsin-EDTA solution. Once the cell layer is dispersed, 8.0 ml of complete growth medium (Table 3) is added and cells are aspirated by gently pipetting. The cell suspension is transferred to a centrifuge tube and centrifuged at 800-1000 rpm for 3-5 minutes. The supernatant is discarded using a vacuum pump. The cell pellet is suspended in a complete medium by gently pipetting. The cell numbers are counted and adjusted to the appropriate density (Table 3). […] The bottom of each plate is pasted with a white back seal and luminescence is recorded using a Flexstation 3 with the following settings: Luminescence and integration time of 500 ms.

U031 = test: Cell Proliferation Assay ±NA, U031; format: cell-based; details: U031, kidney, treatment time 72 hr
Method: as §1

[1] = NA 0.0 μM, read-out: IC50 (μM) NA (0.0 μM)
[2] = NA 10 μM, read-out: IC50 (μM) NA (10 μM)

## CC(C)(O)CS(=O)(=O)Nc1ccc2c(c1)CCN(C(=O)COc1cccnc1)C2 [Example 1, 2-Hydroxy-2-methyl-N-[2-[2-(3-pyridyloxy)acetyl]-3,4-dihydro-1H-isoquinolin-6-yl]propane-1-sulfonamide]
A498; [1]
  IC50: 1.84 µM
A498; [2]
  IC50: > 2 µM
U031; [1]
  IC50: 0.06 µM
U031; [2]
  IC50: 0.06 µM
